Results as given in patent US5129937A, “Pyridyloxypyrimidine derivatives, preparation process thereof, and herbicidal compositions containing the same as active ingredients” (Mitsui Toatsu Chemicals Incorporated, priority 1989, dated 1992).

Assays:
[1] = test system: Bulrush (Scirpus juncoides); experiment: Submerged Soil Treatment Test (Pre-Emergence Treatment); type: in vivo; details: 30 g ai/a, granule, observed 30 days later
Procedure: (§1) 1/5000-are Wagner pots were filled with soil. Seeds or tubers of barnyardgrass, bulrush and Sagittaria pygmaea were seeded or planted under submerged condition. Two pairs of rice seedlings (2-3 leaf stage), which had been reared in advance, were transplanted to each pot and were allowed to germinate in a green house. Each pair consisted of two rice seedlings. On day later (before emergence of weeds), each pot was treated with a granule which had been prepared by processing a predetermined amount of the test composition in accordance with a similar method to the method described in Formulation Example 9. The state of emergence of weeds and the state of injury of rice were observed 30 days later. In the table, the degrees of damages of the test plants and the degrees of injury of rice are shown in a similar manner to Example 2.

[2] = test system: Arrowhead sp. (Sagittaria pygmaea); experiment: as above; type: in vivo; details: 30 g ai/a, granule, observed 30 days later
Procedure: as §1

[3] = test system: Barnyardgrass (Echinochloa crus-galli); experiment: as above; type: in vivo; details: 30 g ai/a, granule, observed 30 days later
Procedure: as §1

[4] = test system: Cotton (Gossypium indicum); experiment: Upland Foliar Application Test, crop injury; type: in vivo; details: 30 g ai/a; foliar application at 2-3 leaf stage, emulsion; observed on the 30th day
From the text: (§2) Resin-made 1/10000-are pots were filled with the soil of an upland field. Redroot pigweed, morningglory (Ipomoea pupurea), common lambsquarters, foxtail meadow, johnsongrass, barnyardgrass, green foxtail, large crabgrass, soybean, corn and cotton were separately seeded and were allowed to germinate in a green house. When each plant grew to the stage of 2-3 leaves, an emulsion formulated from a predetermined amount of each test compound in a similar manner to the method described in Formulation Example 11 was diluted with water and then sprayed at a predetermined application rate by means of a pressure-operated ULV (ultra low volume) sprayer. The application rate was controlled at 5 l per are. Influence to the crops and weeds were observed on the 30th day after the spray of the herbicides. The results are shown in Table 4 in which the degree of damages of each test plant and the degree of injury to each crop are shown in a similar manner to Test 2.

[5] = test system: Corn (Zea maize); experiment: Upland Foliar Application Test, crop injury; type: in vivo; details: 30 g ai/a; foliar application at 2-3 leaf stage, emulsion; observed on the 30th day
From the text: as §2

[6] = test system: Soybean (Glycine max); experiment: Upland Foliar Application Test, crop injury; type: in vivo; details: 30 g ai/a; foliar application at 2-3 leaf stage, emulsion; observed on the 30th day
From the text: as §2

[7] = test system: ALS (acetolactate synthase); experiment: ALS (Acetolactate Synthase) Inhibition Test, barnyardgrass enzyme; type: biochemical; details: enzymoreaction inhibition rate at 10 ppm (5 μg/0.5 ml)
Procedure: To determine the selectivity in enzyme level between crops and weeds, an ALS inhibition test was conducted using pea as a representative of broadleaf crops and barnyardgrass as a representative of gramineous weeds.
After seeds of pea and barnyardgrass were allowed to germinate at 25° C. for 8-14 days in a dark place, partially-purified suspensions (Suspensions A) of acetolactate syntase were separately obtained from seedlings in accordance with the method described in the literature, Plant Physiology, 75, 827-831. In a test tube, […], followed by the addition of 0.15 ml of a 20 mM K2 HPO4 solution and 0.25 ml of a reaction substrate medium which consisted of 40 mM of K2 HPO4, 40 mM of sodium pyruvate, 1 mM of TPP, 1 mM of MgCl2 and 20 μM of FAD so that 0.4 ml of a reaction solution (Solution B) was prepared. Added to 0.4 ml of Solution B was 0.1 ml of Suspension A. After the resultant mixture was shaken for 1 hour in a thermostat water bath controlled at 30° C., 50 μl of 6N sulfuric acid were added to terminate the reaction.
Next, the reaction-terminated liquid mixture was transferred into a thermostat water bath controlled at 60° C. and was heated for 15 minutes. Thereafter, 0.5 ml of a 0.5% creatine solution and 0.5 ml of a 5% alkaline α-naphthol solution were added, and the resultant mixture was maintained at 60° C. for 15 minutes. As a result, the test solution developed a pink-red color. After the above operation, the absorbance of the test solution at 525 nm was measured by a spectrophotometer (Absorbance 1 of Test Compound).
On the other hand, the absorbance (Absorbance 2 of Blank) of a solution obtained by subjecting a portion of Solution B, said portion being free of the test compound, to the above operation and the absorbance (Absorbance 3 of sulfuric acid terminated) of another solution obtained by subjecting another portion of Solution B, said portion containing 50 μl of 6N sulfuric acid as a test compound, were measured at the same time. […] [formula]

[8] = test system: Johnsongrass; experiment: Upland Foliar Application Test; type: in vivo; details: 30 g ai/a; foliar application at 2-3 leaf stage, emulsion; observed on the 30th day
From the text: as §2

[9] = test system: Foxtail (Setaria viridis); experiment: Upland Foliar Application Test; type: in vivo; details: 30 g ai/a; foliar application at 2-3 leaf stage, emulsion; observed on the 30th day
From the text: as §2

[10] = test system: Common lambsquarters; experiment: Upland Foliar Application Test; type: in vivo; details: 30 g ai/a; foliar application at 2-3 leaf stage, emulsion; observed on the 30th day
From the text: as §2

[11] = test system: Barnyardgrass (Echinochloa crus-galli); experiment: Upland Foliar Application Test; type: in vivo; details: 30 g ai/a; foliar application at 2-3 leaf stage, emulsion; observed on the 30th day
From the text: as §2

[12] = test system: Foxtail meadow; experiment: Upland Foliar Application Test; type: in vivo; details: 30 g ai/a; foliar application at 2-3 leaf stage, emulsion; observed on the 30th day
From the text: as §2

[13] = test system: Redroot Pigweed; experiment: Upland Foliar Application Test; type: in vivo; details: 30 g ai/a; foliar application at 2-3 leaf stage, emulsion; observed on the 30th day
From the text: as §2

[14] = test system: Crabgrass (Digitaria adsendens); experiment: Upland Foliar Application Test; type: in vivo; details: 30 g ai/a; foliar application at 2-3 leaf stage, emulsion; observed on the 30th day
From the text: as §2

Row | Inhibition rate (%) Barnyardgrass [7] | Structure (SMILES) | Herbicidal effects Bulrush (Scirpus juncoides) [1] | Herbicidal effects Arrowhead sp. (Sagittaria pygmaea) [2] | Herbicidal effects Barnyardgrass (Echinochloa crus-galli) [3] | Crop injury Cotton (Gossypium indicum) [4] | Crop injury Corn (Zea maize) [5] | Crop injury Soybean (Glycine max) [6] | Herbicidal effects Johnsongrass [8] | Herbicidal effects Foxtail (Setaria viridis) [9] | Herbicidal effects Common lambquarters [10] | Herbicidal effects Barnyardgrass (Echinochloa crus-galli) [11] | Herbicidal effects Foxtail meadow [12] | Herbicidal effects Redroot Pigweed [13] | Herbicidal effects Crabgrass (Digitaria adsendens) [14]
1 | 96% | COc1cc(OC)nc(Oc2cccnc2C2OCCO2)n1 [Compound No. 6] | 5 (0-5 (Death)) | 5 (0-5 (Death)) | 5 (0-5 (Death)) | 0 (91-100 (No damages)) | 0 (91-100 (No damages)) | 0 (91-100 (No damages)) | 5 (0-5 (Death)) | 4 (6-10 (Severe damages)) | 4 (6-10 (Severe damages)) | 4 (6-10 (Severe damages)) | 5 (0-5 (Death)) | 5 (0-5 (Death)) | 4 (6-10 (Severe damages))
2 | 81% | COc1cc(OC)nc(Oc2cccnc2C(OC)OC)n1 [Compound No. 2, 3-(4.6-dimethoxy-2-pyrimidinyloxy)-2-pyridinecarboxaldehyde dimethylacetal] | 5 (0-5 (Death)) | 5 (0-5 (Death)) | 5 (0-5 (Death)) | 0 (91-100 (No damages)) | 0 (91-100 (No damages)) | 0 (91-100 (No damages)) | 5 (0-5 (Death)) | 4 (6-10 (Severe damages)) | 4 (6-10 (Severe damages)) | 4 (6-10 (Severe damages)) | 4 (6-10 (Severe damages)) | 5 (0-5 (Death)) | 4 (6-10 (Severe damages))
3 | 86% | COc1cc(OC)nc(Oc2cccnc2C2OCCCO2)n1 [Compound No. 8] | 4 (6-10 (Severe damages)) | 4 (6-10 (Severe damages)) | 5 (0-5 (Death)) | 0 (91-100 (No damages)) | 0 (91-100 (No damages)) | 0 (91-100 (No damages)) | 5 (0-5 (Death)) | 4 (6-10 (Severe damages)) | 4 (6-10 (Severe damages)) | 4 (6-10 (Severe damages)) | 4 (6-10 (Severe damages)) | 4 (6-10 (Severe damages)) | 3 (11-40 (Medium damages))
